Values joined by “and” are separate entries in the source; they are usually repeats but may differ in a detail not shown here. Identical values can stand only once.
Columns and labels:
[1] = system: Clostridium difficile ATCC700057; experiment: MIC by microdilution, Clostridium difficile; type: cell-based; settings: strain ATCC70057 [sic] (Tables 1-2) / ATCC700057 (Tables 3-10), in duplicate
E. faecalis JH2-2 = experiment: MIC by microdilution, E. faecalis JH2-2; type: cell-based, Enterococcus faecalis; set-up: unit not given here; settings: E. faecalis JH2-2 (wild-type), in duplicate
Protocol: (§1) The antibacterial profile of each derivative was evaluated by the standard microdilution method for susceptibility testing on 16 different strains, following the guidelines of CLSI. The selected panel included: • S. aureus ATCC25923 (MecA negative, wild-type) • S. aureus ATCC29213 (MecA negative, wild-type) • S. aureus ATCC700699 (MecA positive, glycopeptide resistant) • S. aureus ST20131365 (MecA positive, glycopeptide resistant) • S. epidermidis ATCC14990 (MecA negative, wild-type) • S. epidermidis ATCC35984 (MecA positive) • S. epidermidis ST20140436 (MecA positive, glycopeptide resistant) • S. epidermidis ST20150446 (MecA positive, glycopeptide resistant) • E. faecalis JH2-2 (wild-type) • E. faecalis UCN41 (VanA positive, glycopeptide resistant) • E. faecalis V583 (VanB positive, glycopeptide resistant) • E. faecium ATCC19434T (wild-type) • E. faecium BM4147 (VanA positive, glycopeptide resistant) • E. faecium AUS0004 (VanB positive, glycopeptide resistant) • E. coli ATCC25922 (wild-type) • Clostridium difficile ATCC9689 (wild-type)
(§2) Both series issued from the SAR study were evaluated for their antibacterial activity on a panel of characterized strains obtained from the French National Reference Centers for Staphylococci (Lyon, Pr. Fréderique Laurent) and for Enterococci (Caen, Pr. Vincent Cattoir), respectively. As shown in the following tables, both series contain very active compounds on multi-resistant Gram-positive bacteria (Minimal Inhibitory Concentrations lower than comparator antibiotic ampicillin). Furthermore, a very important antibacterial effect has been shown too on a strain of Clostridium difficile, a Gram-positive, spore-forming, bacillus responsible for post-antibiotic diarrhoae.
(§3) The antibacterial activity of test compounds was evaluated on a selected panel of Gram-positive (4 Staphylococcus aureus, 4 Staphylococcus epidermidis, 3 Enterococcus faecalis, 3 Enterococcus faecium, 1 Clostridium difficile) and Gram-negative strains (1 Escherichia coli, 1 Klebsiella pneumoniae, 1 Pseudomonas aeruginosa, 1 Acinetacter baumannii) with known features of antibiotic resistance (from wild-type susceptibility to multi-drug resistance). The Minimal Inhibitory Concentration (MIC) of test compounds was determined in duplicate by the microdilution method in 96-well microplates with a final volume of 100 μL per well and Mueller-Hinton broth as the growth medium, as recommended by the CLSI (Clinical and Laboratory Standards Institute, document Mo7-A10, USA).

E. faecalis V583 = experiment: MIC by microdilution, E. faecalis V583; type: cell-based, Enterococcus faecalis; settings: E. faecalis V583 (VanB positive, glycopeptide resistant), in duplicate
Protocol: as §1, §2, §3

E. coli ATCC25922 = experiment: MIC by microdilution, E. coli ATCC25922; type: cell-based, Escherichia coli; settings: E. coli ATCC25922 (wild-type), in duplicate
Protocol: as §1, §2, §3

[2] = system: panel of Gram-positive and Gram-negative strains; experiment: Antibacterial profile on the selected panel of strains; type: cell-based; settings: summary of Tables 1-12
Protocol: as §1, §2, §3

E. faecium AUS0004 = experiment: MIC by microdilution, E. faecium AUS0004; type: cell-based, Enterococcus faecium; settings: E. faecium AUS0004 (VanB positive, glycopeptide resistant), in duplicate
Protocol: as §1, §2, §3

S. aureus ATCC29213 = experiment: MIC by microdilution, S. aureus ATCC29213; type: cell-based, Staphylococcus aureus; settings: S. aureus ATCC29213 (MecA negative, wild-type), Mueller-Hinton broth, in duplicate
Protocol: as §1, §2, §3

S. aureus ATCC25923 = experiment: MIC by microdilution, S. aureus ATCC25923; type: cell-based, Staphylococcus aureus; settings: S. aureus ATCC25923 (MecA negative, wild-type), Mueller-Hinton broth, in duplicate
Protocol: as §1, §2, §3

E. faecium BM4147 = experiment: MIC by microdilution, E. faecium BM4147; type: cell-based, Enterococcus faecium; set-up: unit not given here; settings: E. faecium BM4147 (VanA positive, glycopeptide resistant), in duplicate
Protocol: as §1, §2, §3

E. faecium ATCC19434T = experiment: MIC by microdilution, E. faecium ATCC19434T; type: cell-based, Enterococcus faecium; set-up: unit not given here; settings: E. faecium ATCC19434T (wild-type), in duplicate
Protocol: as §1, §2, §3

E. faecalis UCN41 = experiment: MIC by microdilution, E. faecalis UCN41; type: cell-based, Enterococcus faecalis; set-up: unit not given here; settings: E. faecalis UCN41 (VanA positive, glycopeptide resistant), in duplicate
Protocol: as §1, §2, §3

S. aureus ATCC700699 = experiment: MIC by microdilution, S. aureus ATCC700699; type: cell-based, Staphylococcus aureus; set-up: unit not given here; settings: S. aureus ATCC700699 (MecA positive, glycopeptide resistant), in duplicate
Protocol: as §1, §2, §3

S. epidermidis ATCC14990 = experiment: MIC by microdilution, S. epidermidis ATCC14990; type: cell-based, Staphylococcus epidermidis; settings: S. epidermidis ATCC14990 (MecA negative, wild-type), in duplicate
Protocol: as §1, §2, §3

S. aureus ST20131365 = experiment: MIC by microdilution, S. aureus ST20131365; type: cell-based, Staphylococcus aureus; settings: S. aureus ST20131365 (MecA positive, glycopeptide resistant), in duplicate
Protocol: as §1, §2, §3

S. epidermidis ATCC35984 = experiment: MIC by microdilution, S. epidermidis ATCC35984; type: cell-based, Staphylococcus epidermidis; settings: S. epidermidis ATCC35984 (MecA positive), in duplicate
Protocol: as §1, §2, §3

[3] = system: S. epidermidis ST20150446; experiment: MIC by microdilution, S. epidermidis ST20150446; type: cell-based, Staphylococcus epidermidis; settings: S. epidermidis ST20150446 (MecA positive, glycopeptide resistant), in duplicate
Protocol: as §1, §2, §3

[4] = system: S. epidermidis ST20140436; experiment: MIC by microdilution, S. epidermidis ST20140436; type: cell-based, Staphylococcus epidermidis; settings: S. epidermidis ST20140436 (MecA positive, glycopeptide resistant), in duplicate
Protocol: as §1, §2, §3

SMILES | Minimal Inhibitory Concentration (MIC) [1] | Minimal Inhibitory Concentration (MIC) (E. faecalis JH2-2) | Minimal Inhibitory Concentration (MIC) (E. faecalis V583) | Minimal Inhibitory Concentration (MIC) (E. coli ATCC25922) | antimicrobial / antibacterial activity (in words) [2] | Minimal Inhibitory Concentration (MIC) (E. faecium AUS0004) | Minimal Inhibitory Concentration (MIC) (S. aureus ATCC29213) | Minimal Inhibitory Concentration (MIC) (S. aureus ATCC25923) | Minimal Inhibitory Concentration (MIC) (E. faecium BM4147) | Minimal Inhibitory Concentration (MIC) (E. faecium ATCC19434T) | Minimal Inhibitory Concentration (MIC) (E. faecalis UCN41) | Minimal Inhibitory Concentration (MIC) (S. aureus ATCC700699) | Minimal Inhibitory Concentration (MIC) (S. epidermidis ATCC14990) | Minimal Inhibitory Concentration (MIC) (S. aureus ST20131365) | Minimal Inhibitory Concentration (MIC) (S. epidermidis ATCC35984) | Minimal Inhibitory Concentration (MIC) [3] | Minimal Inhibitory Concentration (MIC) [4]
CC[P+](CC)(CC)[Au-][c]1nn[nH]c1-c1ccc(C(=O)NC(C(=O)NC2C(=O)N3C2SC(C)(C)C3C(=O)O)c2ccccc2)cc1 (stereo not shown) [TMB22] | ≤0.06 | 0.5 | 0.5 | >8 | have antimicrobial activity | 1 | 0.125 | 0.125 | 1 | 1 | 1 | 0.125 and 0.25 | ≤0.06 | 0.25 |  |  | 
CC[P+](CC)(CC)[Au-][c]1nn[nH]c1-c1ccc(C(=O)O)cn1 [TMB39] | 0.25 and 0.5 | 0.25 | 0.25 |  | have antimicrobial activity | 0.5 | ≤0.06 | ≤0.06 | 0.125 | 0.125 | 0.25 | ≤0.06 | ≤0.06 | ≤0.06 | ≤0.06 | ≤0.06 | ≤0.06
O=C(N[C@@H](C(=O)O)c1ccccc1)OCc1cnn[nH]1 [TMB41] | >8 | >8 | >8 |  | do not show an antibacterial activity | >8 | >8 | >8 | >8 | >8 | >8 | >8 | >8 | >8 | >8 | >8 | >8
CC[P+](CC)(CC)[Au-][c]1nn[nH]c1CNC(=O)CCCC[C@@H]1SC[C@@H]2NC(=O)N[C@@H]21 [TMB42] | 0.25 | 0.25 | 1 |  | have antimicrobial activity | 0.5 | 0.25 | 0.125 | 0.5 | 0.25 | 1 | 0.25 | ≤0.06 | 0.25 | ≤0.06 | ≤0.06 | ≤0.06
CC[P+](CC)(CC)[Au-][c]1nn[nH]c1COC(=O)NC(C(=O)O)c1ccccc1 (stereo not shown) [TMB45] | 0.125 | 0.5 | 0.5 |  | have antimicrobial activity | 0.5 | 0.25 | 0.125 | 0.25 | 0.25 | 0.25 | 0.25 | ≤0.06 | 0.25 | ≤0.06 | ≤0.06 | ≤0.06
O=C(CCc1cnn[nH]1)N[C@@H](C(=O)O)c1ccccc1 [TMB46] | >8 | >8 | >8 |  | do not show an antibacterial activity | >8 | >8 | >8 | >8 | >8 | >8 | >8 | >8 | >8 | >8 | >8 | >8

From patent US20210284668A1, “GOLD (I)-PHOSPHINE 1,2,3-TRIAZOLE DERIVATIVES WITH ANTIBIOTIC PROPERTIES” (Centre National de la Recherche Scientifique, priority 2018, published 2021)
